Data on 14 compounds can be found in patent US20260007758A1, “SO[…]-2 RECEPTOR (SST2R) NON-PEPTIDE DRUG CONJUGATES AND USES THEREOF” (Crinetics Pharmaceuticals, Inc., priority 2024, published 2026).

Molecules are shown by their SMILES. pEC50: −log10 of the molar value. Like-named read-outs stand apart in the source and are kept apart here.

Common to all, as to assay type: cell-based
For test [1], the target named is T1, human somatostatin receptor subtype 2 (Homo sapiens, UniProt P30874).
T1 construct: expressed in transfected cells
The test can be described thus: Functional assay for SSTR2 agonists (HTRF cAMP). Conditions: CHO-K1 cells stably expressing human SST2, NKH477-stimulated cAMP, 20 min at 37 C; for pEC50: read-out: hSST2 cAMP Avg EC50. In short, it runs like this: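 Agonist activity read as fall in intracellular cAMP: HTRF 665/620 nm ratio regressed to a cAMP standard curve, EC50 fitted. Stable human SSTR2 CHO-K1 cells exposed 20 min at 37 °C to compound, final concentrations typically 0-10,000 nM.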

In test [2] the test system is NCI-H524 human small cell lung cancer cells. Nature of the test: H524 assay: inhibition of cell proliferation (CellTiter Glo). As to conditions: 2 h treatment, washout, additional 70 h incubation. In short, it runs like this: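 Proliferation was measured by CellTiter Glo 70 h after a washout that followed a 2 h pulse of NDC. Doses were an 11-point, two-fold dilution series from 1 uM. IC50 was fitted with a four-parameter model to luminescence-based % inhibition relative to control cells.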

The target in another test is T2, SST2 (Homo sapiens, UniProt P30874).
T2 construct: host or cells: PathHunter CHO-K1 SST2 cells
Nature of the test: PathHunter CHO-K1 SST2 Internalization Assay. Conditions: PathHunter CHO-K1 SST2 cells, 90 min at 37 C, luminescence; for pEC50: read-out: Internalization EC50. In short, it runs like this:
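Four-parameter nonlinear fits of background-corrected luminescence (duplicate means) gave IC50s. NDCs were serially diluted 1:3 over 11 points from a 10 uM final top concentration and incubated 90 min at 37 C with human SST2 CHO-K1 cells plated 48 h earlier at 2500/well. Beta-Glo read-out developed 60 min at RT.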

T2 sequence (P30874 whole entry): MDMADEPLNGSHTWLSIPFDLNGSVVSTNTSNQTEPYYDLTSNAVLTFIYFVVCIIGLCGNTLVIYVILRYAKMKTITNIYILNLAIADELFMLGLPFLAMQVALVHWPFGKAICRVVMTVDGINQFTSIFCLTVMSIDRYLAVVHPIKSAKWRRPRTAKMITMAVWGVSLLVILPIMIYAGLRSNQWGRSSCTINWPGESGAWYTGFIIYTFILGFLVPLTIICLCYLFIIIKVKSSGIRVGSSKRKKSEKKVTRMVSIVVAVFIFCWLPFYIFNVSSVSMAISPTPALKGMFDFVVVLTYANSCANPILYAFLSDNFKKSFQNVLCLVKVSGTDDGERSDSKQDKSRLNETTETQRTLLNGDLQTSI
T1 sequence (P30874 whole entry): as above

`CC[C@H](C)[C@@H]([C@@H](CC(=O)N1CCC[C@H]1[C@H](OC)[C@@H](C)C(=O)N[C@H](C)[C@@H](O)c1ccccc1)OC)N(C)C(=O)[C@@H](NC(=O)[C@H](C(C)C)N(C)C(=O)OCc1ccc(NC(=O)[C@H](CCCNC(N)=O)NC(=O)[C@@H](NC(=O)[C@H](CCC(=O)O)NC(=O)CCOCCC(=O)NCCNc2ncc(-c3cc(C)cc(F)c3)c(N3CCC(N)CC3)c2-c2nc3ccc(Cl)cc3[nH]2)C(C)C)cc1C(=O)NCCNC)C(C)C` [Compound 57]: the pEC50 in test [1] was 9.51; in test [2], 6.00; on SST2, 8.18.

Consider `CC[C@H](C)[C@@H]([C@@H](CC(=O)N1CCC[C@H]1[C@H](OC)[C@@H](C)C(=O)N[C@H](C)[C@@H](O)c1ccccc1)OC)N(C)C(=O)[C@@H](NC(=O)[C@H](C(C)C)N(C)C(=O)OCc1ccc(NC(=O)[C@H](CCCNC(N)=O)NC(=O)[C@@H](NC(=O)CCOCCC(=O)NCCNc2ncc(-c3cc(C)cc(F)c3)c(N3CCC(N)CC3)c2-c2nc3ccc(Cl)cc3[nH]2)C(C)C)c(O[C@@H]2O[C@H](C(=O)N(C)C)[C@@H](O)[C@H](O)[C@H]2O)c1)C(C)C` [Compound 217], for which the pEC50 in test [1] is 10.03; in test [2], 8.16; on SST2, 8.22.

On to `CC[C@@H](C)[C@H]([C@H](CC(=O)N1CCC[C@@H]1[C@@H](OC)[C@H](C)C(=O)N[C@@H](C)[C@H](O)c1ccccc1)OC)N(C)C(=O)[C@H](NC(=O)[C@@H](C(C)C)N(C)C(=O)OCc1ccc(NC(=O)[C@@H](CCCNC(N)=O)NC(=O)[C@H](NC(=O)[C@@H](CCC(=O)O)NC(=O)CCOCCOCCNC(=O)CCc2cn(CCCC[C@H](NC(=O)CCOCCC(=O)NCCNc3ncc(-c4cc(C)cc(F)c4)c(N4CCC(N)CC4)c3-c3nc4ccc(Cl)cc4[nH]3)C(=O)NCCOCCOCCC(=O)N[C@@H](CCC(=O)O)C(=O)N[C@H](C(=O)N[C@@H](CCCNC(N)=O)C(=O)Nc3ccc(COC(=O)N(C)[C@H](C(=O)N[C@H](C(=O)N(C)[C@@H]([C@@H](C)CC)[C@@H](CC(=O)N4CCC[C@H]4[C@H](OC)[C@@H](C)C(=O)N[C@H](C)[C@@H](O)c4ccccc4)OC)C(C)C)C(C)C)cc3)C(C)C)nn2)C(C)C)cc1)C(C)C` [Compound 245], for which the results for the EC50 (in test [1] (hSST2 cAMP Avg EC50 (nM)); on SST2 (Internalization EC50 (nM))) were 11 nM and 440 nM, respectively. The same compound gave a pEC50 in test [2] of 6.85.

Turning to `CC[C@H](C)[C@@H]([C@@H](CC(=O)N1CCC[C@H]1[C@H](OC)[C@@H](C)C(=O)N[C@H](C)[C@@H](O)c1ccccc1)OC)N(C)C(=O)[C@@H](NC(=O)[C@H](C(C)C)N(C)C(=O)OCc1ccc(NC(=O)[C@H](C)NC(=O)[C@@H](NC(=O)C2(C(=O)NCCOCCC(=O)NCCNc3ncc(-c4cc(C)cc(F)c4)c(N4CCC(N)CC4)c3-c3nc4ccc(Cl)cc4[nH]3)CCC2)C(C)C)cc1C(=O)NCCN)C(C)C` [Compound 82], the figures for the pEC50 (in test [1]; in test [2]; at SST2) were 9.59, 8.18 and 7.89, respectively.

As to `CC[C@H](C)[C@@H]([C@@H](CC(=O)N1CCC[C@H]1[C@H](OC)[C@@H](C)C(=O)N[C@H](C)[C@@H](O)c1ccccc1)OC)N(C)C(=O)[C@@H](NC(=O)[C@H](C(C)C)N(C)C(=O)OCc1ccc(NC(=O)[C@H](CCCNC(N)=O)NC(=O)[C@@H](NC(=O)CCOCCC(=O)NCCNc2ncc(-c3cc(C)cc(F)c3)c(N3CCC(N)CC3)c2-c2nc3ccc(Cl)cc3[nH]2)C(C)C)c(C)c1)C(C)C` [Compound 9], the negative-log EC50 (pEC50) was 9.42 in test [1], 8.37 in test [2] and 8.60 at SST2.

In the case of `CC[C@H](C)[C@@H]([C@@H](CC(=O)N1CCC[C@H]1[C@H](OC)[C@@H](C)C(=O)N[C@H](C)[C@@H](O)c1ccccc1)OC)N(C)C(=O)[C@@H](NC(=O)[C@H](C(C)C)N(C)C(=O)OCc1ccc(NC(=O)[C@H](CCCNC(N)=O)NC(=O)[C@@H](NC(=O)C[C@@H](N)C(=O)NCCOCCC(=O)NCCNc2ncc(-c3cc(C)cc(F)c3)c(N3CCC(N)CC3)c2-c2nc3ccc(Cl)cc3[nH]2)C(C)C)cc1)C(C)C` [Compound 181], the results for the pEC50 (in test [1]; in test [2]; on SST2) were 9.42, 6.72 and 8.47, respectively.

Consider `CC[C@H](C)[C@@H]([C@@H](CC(=O)N1CCC[C@H]1[C@H](OC)[C@@H](C)C(=O)N[C@H](C)[C@@H](O)c1ccccc1)OC)N(C)C(=O)[C@@H](NC(=O)[C@H](C(C)C)N(C)C(=O)OCc1ccc(NC(=O)[C@H](CCCNC(N)=O)NC(=O)[C@@H](NC(=O)C[C@@H](N)C(=O)NCCOCCC(=O)NCCNc2ncc(-c3cc(C)cc(F)c3)c(N3CCC(N)CC3)c2-c2nc3ccc(Cl)cc3[nH]2)C(C)C)c(CCC(=O)O)c1)C(C)C` [Compound 205], for which the pEC50 in test [1] was 10.07; in test [2] it was 7.43; on SST2, 8.28.

As for `CC[C@H](C)[C@@H]([C@@H](CC(=O)N1CCC[C@H]1[C@H](OC)[C@@H](C)C(=O)N[C@H](C)[C@@H](O)c1ccccc1)OC)N(C)C(=O)[C@@H](NC(=O)[C@H](C(C)C)N(C)C(=O)OCc1ccc(NC(=O)[C@H](CCCNC(N)=O)NC(=O)[C@@H](NC(=O)CCOCCC(=O)NCCNc2ncc(-c3cc(C)cc(F)c3)c(N3CCC(N)CC3)c2-c2nc3ccc(Cl)cc3[nH]2)C(C)C)c(O[C@@H]2O[C@H](C(=O)NCCOCCC(=O)O)[C@@H](O)[C@H](O)[C@H]2O)c1)C(C)C` [Compound 230], the negative logarithm of the EC50 (pEC50) in test [1] was 10.02; in test [2], 7.85; on SST2 it was 8.38.

As to `CC[C@H](C)[C@@H]([C@@H](CC(=O)N1CCC[C@H]1[C@H](OC)[C@@H](C)C(=O)N[C@H](C)[C@@H](O)c1ccccc1)OC)N(C)C(=O)[C@@H](NC(=O)[C@H](C(C)C)N(C)C(=O)OCc1ccc(NC(=O)[C@H](CCCNC(N)=O)NC(=O)[C@@H](NC(=O)[C@H](CCc2nnn[nH]2)NC(=O)CCOCCC(=O)NCCNc2ncc(-c3cc(C)cc(F)c3)c(N3CCC(N)CC3)c2-c2nc3ccc(Cl)cc3[nH]2)C(C)C)cc1)C(C)C` [Compound 176], the negative-log EC50 (pEC50) in test [1] is 9.55; in test [2], 6.21; on SST2, 8.43.

Turning to `CC[C@H](C)[C@@H]([C@@H](CC(=O)N1CCC[C@H]1[C@H](OC)[C@@H](C)C(=O)N[C@H](C)[C@@H](O)c1ccccc1)OC)N(C)C(=O)[C@@H](NC(=O)[C@H](C(C)C)N(C)C(=O)OCc1ccc(NC(=O)[C@H](CCCNC(N)=O)NC(=O)[C@@H](NC(=O)c2cc(NCCOCCC(=O)NCCNc3ncc(-c4cc(C)cc(F)c4)c(N4CCC(N)CC4)c3-c3nc4ccc(Cl)cc4[nH]3)cc(C(=O)NC[C@@H](N)C(=O)O)c2)C(C)C)cc1)C(C)C` [Compound 147], the negative-log EC50 (pEC50) in test [1] was 9.25; in test [2], 7.46; on SST2, 7.64.

In the case of `CC[C@H](C)[C@@H]([C@@H](CC(=O)N1CCC[C@H]1[C@H](OC)[C@@H](C)C(=O)N[C@H](C)[C@@H](O)c1ccccc1)OC)N(C)C(=O)[C@@H](NC(=O)[C@H](C(C)C)N(C)C(=O)OCc1ccc(NC(=O)[C@H](C)NC(=O)[C@@H](NC(=O)CCOCCC(=O)NCCN(C)c2ncc(-c3cc(C)cc(F)c3)c(N3CCC(N)CC3)c2-c2nc3ccc(Cl)cc3[nH]2)C(C)C)c(O[C@@H]2O[C@H](C(=O)O)[C@@H](O)[C@H](O)[C@H]2O)c1)C(C)C` [Compound 125], the pEC50 in test [1] was 9.23; in test [2], 6.24; on SST2, 7.32.

With `CC[C@H](C)[C@@H]([C@@H](CC(=O)N1CCC[C@H]1[C@H](OC)[C@@H](C)C(=O)N[C@H](C)[C@@H](O)c1ccccc1)OC)N(C)C(=O)[C@@H](NC(=O)[C@H](C(C)C)N(C)C(=O)OCc1ccc(NC(=O)[C@H](CCCNC(N)=O)NC(=O)[C@@H](NC(=O)[C@H](CCC(N)=O)NC(=O)CCOCCOCCOCCOCCC(=O)NCCNc2ncc(-c3cc(C)cc(F)c3)c(N3CCC(N)CC3)c2-c2nc3ccc(Cl)cc3[nH]2)C(C)C)c(OCCN)c1)C(C)C` [Compound 26], the pEC50 in test [1] is 9.52; in test [2], 7.77; at SST2 it was 7.92.

With `CC[C@H](C)[C@@H]([C@@H](CC(=O)N1CCC[C@H]1[C@H](OC)[C@@H](C)C(=O)N[C@H](C)[C@@H](O)c1ccccc1)OC)N(C)C(=O)[C@@H](NC(=O)[C@H](C(C)C)N(C)C(=O)OCc1ccc(NC(=O)C(CCCNC(N)=O)NC(=O)[C@@H](NC(=O)c2cc(NC(=O)CCOCCC(=O)N(C)CC(=O)NCCNc3ncc(-c4cc(C)cc(F)c4)c(N4CCC(N)CC4)c3-c3nc4ccc(Cl)cc4[nH]3)cc(C(=O)NCC(=O)NCCN)c2)C(C)C)cc1)C(C)C` (stereo partly drawn) [Compound 175], the pEC50 in test [1] was 9.39; in test [2] it was 7.25; on SST2, 7.74.

For the compound `CC[C@H](C)[C@@H]([C@@H](CC(=O)N1CCC[C@H]1[C@H](OC)[C@@H](C)C(=O)N[C@H](C)[C@@H](O)c1ccccc1)OC)N(C)C(=O)[C@@H](NC(=O)[C@H](C(C)C)N(C)C(=O)OCc1ccc(NC(=O)[C@H](CCCNC(N)=O)NC(=O)[C@@H](NC(=O)[C@H](Cc2c[nH]cn2)NC(=O)CCOCCC(=O)NCCNc2ncc(-c3cc(C)cc(F)c3)c(N3CCC(N)CC3)c2-c2nc3ccc(Cl)cc3[nH]2)C(C)C)c(O[C@@H]2C[C@H](C(=O)O)[C@@H](O)[C@H](O)[C@H]2O)c1)C(C)C` [Compound 243], the pEC50 was 10.09 in test [1], 7.77 in test [2] and 8.49 at SST2.
